# Reference: patent US8252835B2, “Compounds and methods for treating estrogen receptor-related diseases” (Shenogen Pharma Group Ltd., priority 2006, dated 2012)
# Experiments:
# [1] = test system: Tamoxifen resistant MCF7 cells (MCF7/TAM); assay: Surviving cell count, Tamoxifen resistant MCF7 cells; settings: two weeks, FIG. 6
# LnCap cells = assay: LNCap prostate cancer surviving cell count; type: cell-based; settings: two weeks, FIG. 10
# MCF7 cell xenografts = assay: MCF7 xenografts in nude mice, established tumors; type: in vivo; settings: 5 mg per mouse by gavage every other day for 15 days, FIG. 12
# Method: (§1) The vial was wrapped with aluminium foil and placed on a rocker at 37° C. for several hours. […] The Icaritin solution was administered to mice using the gavage technique. For gavaging, we used Animal Feeding Needles (Popper; cat No. 9921, size: 20GX1.1/2).
# (§2) Tumor formation was assayed in female athymic nude mice (6 weeks old, strain CDI nu/nu, Charles River Breeding Laboratory). MCF7 cells or MDA-MB-231 cells at the concentration of 1×10^7 cells in 200 μl Matrigel (BD Biosciences) were injected into the mice by the mammary fatpad injection. A group of 5 mice were injected with each type of breast cancer cells. […] Tumor disappearance was determined by palpation, and the sizes of tumors were also monitored by measuring two perpendicular diameters with vernier calipers every other day and photographed.
# MCF7 cells [2] = assay: MCF7 surviving cell count (hemocytometer); settings: two weeks
# [3] = test system: human endometrial cancer Hec1A cells; assay: MTT assay of Hec1A cell growth; type: cell-based; settings: 24 hours
# Method: Human endometrial cancer Hec1A cells (ATCC No.: HTB-112™) were subseeded in a 96-well culture plate at a concentration of 5×10^3 cells/well and were cultured in DMEM containing high glucose medium (HyClone, SH30022.01B). […] The cells then were incubated with 0.5 mg/ml 3-(4,5-dimethylthiazol-2-yl)-2,5-diphenyltetrazolium bromide (MTT) for 4 hours at 37° C. wherein the MTT was reduced to insoluble purple formazan by the active mitochondrial reductase enzymes in the living cells. Then the excessive liquid MTT was removed from the reaction mixture. 150 μl of DMSO was added to dissolve the purple formazan into a colored solution. The optical density of the colored solution was measured at 490 nm using a microplate reader.
# H226 Lung Cancer Cells = assay: H226 lung cancer surviving cell count; type: cell-based; settings: two weeks, FIG. 10
# PC3 cells = assay: PC3 prostate cancer surviving cell count; type: cell-based; settings: two weeks, FIG. 10
# breast cancer cells = settings: background, literature (Liu 2005; Wang 2004; Ye 2005); cited from earlier work
# MDA-MB-231 cells [4] = assay: MDA-MB-231 cells treated for a week, examined under microscope; type: cell-based; settings: 10 μM, one week, FIG. 3
# [5] = test system: cervical cancer U14 cells; assay: Murine cervical cancer U14 tumors in ICR mice; type: in vivo; settings: 14 days, FIG. 15a
# Method: The original ICR mice containing cervical cancer U14 cell line were provided by the Institute of Materia Medica, Chinese Academy of Medical Sciences. Five ml of abdominal fluid was drawn from the lower abdomen of the mice. The fluid was diluted at the ratio of 1:5 with saline. 0.2 ml of the diluted abdominal fluid was injected subcutaneously at the right front limb and chest of female ICR mice (provided by the Division of Experimental Animals of the Medical School of Beijing University). After the implantation, the mice were treated right away with Icaritin, Tamoxifen and olive oil, respectively. Icaritin was given at three dosages. The high dosage was 0.7 mg per mouse per day (about 33 mg/kg/day). The medium dosage was 0.35 mg per mouse per day (about 16.5 mg/kg/day). The low dosage was 0.18 mg per mouse per day (about 8.25 mg/kg/day). […] Olive oil was used as a negative control wherein each mouse was fed with 0.1 ml of olive oil. […] Then the mice were sacrificed and the tumor tissues were dissected from the mice and weighed. Ten female ICR mice were used for each test compounds and dosages. Three parallel experiments were carried out. […] The tumor growth inhibition rate was calculated using the same formula as Example 11.
# [6] = test system: human breast cancer BCAP-37 cells xenografts; assay: Human breast cancer BCAP-37 xenografts in nude mice; type: in vivo, BALB/c-nu mice; settings: 15 days, FIG. 14a
# Excerpt: The original nude mice bearing BCAP-37 breast cancer were provided by the Institute of Materia Medica, Chinese Academy of Medical Sciences. Tumor tissues were taken from the mice and cut into small pieces. Several pieces of the tumor tissues were implanted into the armpit under the right front limb of female nude mice (provided by the Division of Experimental Animals of the Medical School of Beijing University). […] Starting on the seventh day, the mice were fed with Icaritin at three dosages. The high dosage was 0.7 mg per mouse per day (about 33 mg/kg/day). The medium dosage was 0.35 mg per mouse per day (about 16.5 mg/kg/day). The low dosage was 0.18 mg per mouse per day (about 8.25 mg/kg/day). […] Olive oil was used as a negative control wherein each mouse was fed with 0.1 ml of olive oil. […] Then the mice were sacrificed and the tumor tissues were dissected from the mice and weighed. Two parallel experiments were done for the tests. Ten female BALB/c-nu mice were used for each test compounds and each dosages for one of the two parallel experiment. Eight female BALB/c-nu mice were used for each test compounds and each dosages for the other parallel experiment. […] The effect of IC 163 on inhibiting breast cancer growth was tested in the same assay as described above. IC 163 was tested at the dosage of 0.7 mg per mouse per day (about 35 mg/kg/day). […] Olive oil was used as a negative control.
# MCF7 cells [7] = assay: MCF7 colony formation; type: cell-based; settings: zero to 25 μM, as concentration rose, 10 days, FIG. 5a
# MDA-MB-231 cells [8] = assay: MDA-MB-231 colony formation, crystal violet staining; type: cell-based; settings: 10 days, FIG. 4
# [9] = test system: MDA-MB-231 cell xenografts; assay: MDA-MB-231 xenografts in nude mice, treatment right after implantation; type: in vivo; settings: 1 mg per mouse twice a week for 36 days, started right after injection, FIG. 13
# Method: Tumor formation was assayed in female athymic nude mice (6 weeks old, strain CDI nu/nu, Charles River Breeding Laboratory). MDA-MB-231 cells at the concentration of 1×10^7 cells in 200 μl Matrigel (BD Biosciences) were injected into the mice by the mammary fatpad injection. A group of 5 mice were injected with the breast cancer cells. The mice were treated with Icaritin right after the injection. […] Then the mice were sacrificed and the tumor tissues were dissected from the mice, photographed and weighed.
# [10] = test system: MDA-MB-231 cell xenografts; assay: MDA-MB-231 xenografts in nude mice, established tumors; type: in vivo; settings: 5 mg per mouse by gavage every other day for 30 days, FIG. 11
# Method: as §1, §2
# [11] = test system: MCF7 cells over-expressing ER-α36 (MCF7/ER36); assay: Surviving cell count, MCF7 cells over-expressing ER-α36; type: cell-based; settings: two weeks, FIG. 6
# Excerpt: MCF7 cells over-expressing ER-α36 were made by stably transfecting MCF cells with an ER-α36 expression vector. The ER-α36 expression vector was constructed by cloning a 1.1-kb cDNA fragment of ER-α36 from pBluescript plasmid into a mammalian expression vector pCB6+ as described before (Wang et al., 2005, BBRC, 336:1023-1027). The constructed ER-α36 expression vector contains the cytomegalovirus (CMV) early promoter. MCF7 cells were transfected with the ER-α36 expression vector using the FuGene6 transfection reagent (Roche Molecular Biochemicals). Forty-eight hours after transfection, the cells were re-plated and selected with 500 μg/ml of G418 (Invitrogen) for about two weeks until colonies appeared. The clones were then pooled and cultured to confirm the expression of ER-α36 by Western blot analysis.
# [12] = high dosage 0.7 mg per mouse per day
# [13] = low dosage 0.18 mg per mouse per day
# [14] = medium dosage 0.35 mg per mouse per day
compound,measurement,setting,value
COc1ccc(-c2oc3c(CC=C(C)C)c(O)cc(O)c3c(=O)c2O)cc1 [Icaritin],growth of cells (numbers of survived cells),[1]; 5 μM,significantly inhibited
same,inhibition compared with MCF7 cells,[1]; 5 μM,stronger
same,numbers of cells,[1]; 10 μM,near zero
same,numbers of cells,LnCap cells; 5 μM,decreased
same,numbers of cells,LnCap cells; 10 μM,further reduced
same,tumor size,MCF7 cell xenografts,significant tumor size reduction
same,numbers of surviving MCF7 cells,"MCF7 cells [2]; 5 μM and up, FIG. 5b",significantly reduced
same,growth of cells (numbers of survived cells),"MCF7 cells [2]; 5 μM, FIG. 6",significantly inhibited
same,numbers of cells,"MCF7 cells [2]; 10 μM, FIG. 6",near zero
same,effect on the growth of Hec1A cells,[3]; 0 to 5 μM,significant inhibitory effect
same,optical density at 490 nm (MTT),"[3]; increased concentrations 0 to 5 μM, FIG. 21",declined smoothly
same,numbers of cells,H226 Lung Cancer Cells; 5 μM,decreased
same,numbers of cells,H226 Lung Cancer Cells; 10 μM,further reduced
same,numbers of cells,PC3 cells; 5 μM,decreased
same,numbers of cells,PC3 cells; 10 μM,further reduced
same,proliferation of breast cancer cells,breast cancer cells,significantly increase
same,cell morphology,MDA-MB-231 cells [4],features characteristic of apoptotic cells
same,number of surviving cells,MDA-MB-231 cells [4],dramatically reduced
same,tumor weight compared with negative control,[5]; [12],reduced tumor weights
same,tumor weight compared with negative control,[5]; [13],reduced tumor weights
same,tumor weight compared with negative control,[5]; [14],reduced tumor weights
same,tumor weight compared with negative controls,[6]; [12],reduced tumor weights
same,tumor weight compared with negative controls,[6]; [13],reduced tumor weights
same,tumor weight compared with negative controls,[6]; [14],reduced tumor weights
same,number of colonies of MCF7 cells,MCF7 cells [7],significantly reduced
same,numbers of colonies of MDA-MB-231 cells,MDA-MB-231 cells [8]; 5 μM,decreased
same,numbers of colonies of MDA-MB-231 cells,MDA-MB-231 cells [8]; 10 μM,reduced to near zero
same,tumor size,[9],tumor size reduction
same,tumor size,[10],significant tumor size reduction
same,growth of cells (numbers of survived cells),[11]; 5 μM,significantly inhibited
same,inhibition compared with MCF7 cells,[11]; 5 μM,stronger
same,numbers of cells,[11]; 10 μM,near zero
